Literature values in US6641839B1, “Pharmaceutical formulations for preventing drug tolerance” (Athpharma Limited, priority 1987, dated 2003).

Conditions: nitrate therapy, widely believed critical level

| SMILES | minimum critical plasma concentration for therapeutic effect |
| --- | --- |
| O=[N+]([O-])O[C@H]1CO[C@H]2[C@@H]1OC[C@H]2O [IS-2-MN, isosorbide-2-mononitrate] | approximately 20 ng/ml |
| O=[N+]([O-])O[C@@H]1CO[C@H]2[C@@H]1OC[C@@H]2O [IS-5-MN, isosorbide-5-mononitrate] | approximately 100 ng/ml |
